Assay results as given in patent US20120301468A1, “ANTI-MN ANTIBODIES AND METHODS OF USING SAME” (BAYER HEALTHCARE LLC, priority 2005, published 2012).
Where two headings read alike, the source gives them in different places.

Experiments:
[1] = system: MaTu human mammary carcinoma xenograft; conditions: for tumors showing signs of re-growth: ˜3 months after cessation, 10 mice per group; for animals remained tumor-free: ˜90 days after cessation
Experimental: Anti-MN antibodies were conjugated to cytotoxic small molecules using protocols that are known in the art (e.g., Liu, et al., Proc. Natl. Acad. Sci. 93:8618-8623, 1996). Human mammary xenograft, MaTu cells were maintained as adherent cultures in RPMI supplemented with 10% FBS. Ncr nude mice (8-12 weeks of age) were inoculated subcutaneously in the right flank with 5×10^6 cells in 0.1 mL of 80% matrigel/20% HBSS. When tumors reached an average size of ˜180 mg (6 days), treatment was initiated. Monoclonal antibodies conjugated to cytotoxic small molecules were administered i.v. once every four days (Q4Dx3) at a dose of 10 mg/kg. Control mice were treated with PBS or an unconjugated monoclonal antibody. Daily examinations into the health status of each animal were conducted. Each experimental group consisted of 10 mice and the dosing volume was 0.1 mL/10 g body weight. The length and width of each tumor was measured by using an electronic caliper 2-3 times per week and tumor weights (mg) were calculated based on the formula of [length (mm)×width (mm)^2]/2. All data, including daily observations, obtained throughout the course of the study were documented. Tumor growth inhibition (TGI) was calculated as 1−T/C×100, where T=final tumor weights from a treated group, and C=final tumor weights from the control group.
The in vivo anti-tumor effect of 3ee9/MMAE was examined in 6 different human xenograft tumor models. These models were established through subcutaneous implantation of human tumor cells into female athymic NCr (nu/nu) mice (Taconic, N.Y.). The human tumor xenograft models evaluated included the MaTu human mammary carcinoma model, the HT-29 and Colo-205 human colo-rectal carcinoma (CRC) models, PC3MM2 prostate carcinoma model, the HCT-15 multi-drug resistant (P-gp) CRC model, and the MiaPaCa2 human pancreatic model. PBS was used as a vehicle, and dosing solutions were prepared fresh daily. The dosing volume was 0.1 mL/10 g (10 mL/kg).
The length and width of each tumor were measured using an electronic caliper 2-3 times per week, and tumor weights (mg) were calculated based on the formula of [length (mm)×width (mm)^2]/2. All data, including daily observations, obtained throughout the course of the study were documented in Anti-tumor Data Acquisition System (ADAS). […] Tumor growth inhibition (TGI) was calculated as (1-T/C)×100, where T=final tumor weights from a treated group after the last dose, and C=final tumor weights from the control group after the last dose. In addition, anti-tumor efficacy was measured as the incidence of responses (or responders or regressions) defined as tumors with ≦50% of their initial size. A minimum duration of 7 days is required for a response to be considered durable.
Human mammary xenograft, MaTu cells were maintained as adherent cultures in RPMI supplemented with 10% FBS. NCr nude mice (8-12 weeks of age) were inoculated subcutaneously in the right flank with 5×10^6 cells in 0.1 mL of 80% matrigel/20% HBSS. When tumors reached an average size of ˜180 mg (7 days), treatment was initiated. […] Control mice were treated with PBS or an un-conjugated monoclonal antibody at a dose of 10 mg/kg.
Daily examinations into the health status of each animal were conducted. Each experimental group consisted of 10 mice, and the dosing volume was 0.1 mL/10 g body weight. The length and width of each tumor was measured by using an electronic caliper 2-3 times per week, and tumor weights (mg) were calculated based on the formula of [length (mm)×width (mm)^2]/2. All data, including daily observations, obtained throughout the course of the study were documented. Tumor growth inhibition (TGI) was calculated as 1−T/C×100, where T=final tumor weights from a treated group, and C=final tumor weights from the control group.

[2] = system: mitochondria-associated CA5; assay: Binding to CA5
[3] = system: MN-negative DLD cells; assay: FACS cell binding, DLD cells; type: cell-based
Experimental: Cells may be assayed for MN expression as a diagnostic tool. Adherent MN-expressing PC-3 mm2 cells and non-MN expressing DLD1 cells were detached from their flasks with 1:10 trypsin/Versene in PBS solution for 5 to 10 minutes. Cells were spun down (1000 rpm, 5 minutes), washed once with ice cold RPMI 10% FBS, and resuspended in ice-cold staining buffer (Ca^+ Mg^+-free PBS, 2% BSA, and 0.05% sodium azide) at 6×10^6 cells/ml. Primary antibody, human anti-MN IgG1, or control human IgG1 antibody at 25 μg/mL were incubated with 6×10^5 cells on ice for 1 hour. The unbound antibody was washed from the cells with the ice-cold staining buffer. The cells were fixed with 2% formaldehyde in PBS for 10 minutes, then washed twice with staining buffer. The cell pellet was resuspended in 100 μl ice cold staining buffer containing anti-human Alexa fluor 488 secondary antibody (final conc. 1:200, Molecular Probes/Invitrogen, Carlsbad, Calif.), and incubated on ice for 1 hour. The unbound antibody was washed from the cells two times with flow buffer (PBS containing 2% BSA), and the cells were resuspended in 1 mL flow buffer. FACS analysis of the resuspended cells was performed on a […] FACS Caliber instrument.
The MN antibody G250, a humanized IgG1 antibody, (Wilex) was used as a reference throughout the in vitro studies.

[4] = system: HCT-15 multi-drug resistant (P-gp) CRC xenograft; assay: HCT-15 multi-drug resistant xenograft model; type: in vivo, NCr nu/nu mice; conditions: HCT-15 MDR model
Experimental: To examine the effect of 3ee9/MMAE in a multi-drug resistance model, female NCr nu/nu mice were implanted subcutaneously (s.c.) with 5×10^6 HCT-15 cells. HCT-15 is a multi-drug resistant (MDR) line that over-expresses P-glycoprotein (P-gp). […] 3ee9/MMAE, Taxol, and Gemcitabine were administered when mice had established tumors with mean weight of ˜150 mg. Gemcitabine, a pyrimidine analog that is not a P-gp substrate was used as a positive control.

[5] = system: PC3 mm2 human prostate tumor xenograft; assay: PC3 mm2 subcutaneous xenograft model; type: in vivo, NCr nu/nu mice; conditions: for animals showing responses: PC3MM2
Experimental: The in vivo anti-tumor effect of 3ee9/MMAE was examined in 6 different human xenograft tumor models. These models were established through subcutaneous implantation of human tumor cells into female athymic NCr (nu/nu) mice (Taconic, N.Y.). […] PBS was used as a vehicle, and dosing solutions were prepared fresh daily. The dosing volume was 0.1 mL/10 g (10 mL/kg).
The length and width of each tumor were measured using an electronic caliper 2-3 times per week, and tumor weights (mg) were calculated based on the formula of [length (mm)×width (mm)^2]/2. […] Tumor growth inhibition (TGI) was calculated as (1-T/C)×100, where T=final tumor weights from a treated group after the last dose, and C=final tumor weights from the control group after the last dose. In addition, anti-tumor efficacy was measured as the incidence of responses (or responders or regressions) defined as tumors with ≦50% of their initial size. A minimum duration of 7 days is required for a response to be considered durable.
The anti-tumor activity of 3ee9/MMAE was next evaluated against human prostate (PC-3 mm2) and CRC (Colo-205) tumor xenografts. Female NCr nu/nu mice were implanted subcutaneously (s.c.) either with 5×10^6 PC3 mm2 or Colo-205 cells. Treatment was initiated when tumors were of an average size of approximately 125-150 mg. The general health of mice was monitored and recorded daily. Tumor dimensions and body weights were recorded twice a week starting with the first day of treatment.
In the PC3 mm2 and Colo-205 studies, 3ee9/MMAE was administered intravenously (i.v.) once every 4th day for a total of 3 injections (Q4Dx3) at doses of 1, 3, 10 and 30 mg/kg and 1.25, 2.5, 5 and 10 mg/kg, respectively.

3ee9/MMAE: human anti-MN IgG1 antibody 3ee9 conjugated to Monomethylauristatin E (MMAE)
body weight loss ([1]; 60 mg/kg i.v. Q4Dx3): ~20%
lethality ([1]; 60 mg/kg i.v. Q4Dx3): 10%
maximum tolerated dose (MTD) ([1]; MaTu tumor-bearing mice, i.v. Q4Dx3): 60 mg/kg
therapeutic index (MTD divided by MED) ([1]; MaTu xenograft): ~96
tumor regression ([1]; MaTu, 0.625 mg/kg Q4Dx3): No tumor regression
inhibition of tumor growth ([1]; MaTu, 0.625 mg/kg Q4Dx3, end of dosing): 62%
time tumors remained stable after cessation of treatment ([1]; MaTu, 1 mg/kg Q4Dx3): ~2 weeks
tumors responsive to treatment ([1]; MaTu, 1 mg/kg Q4Dx3): 30%
TGI ([1]; MaTu, 1 mg/kg i.v. Q4Dx3, end of dosing): 67%
animals exhibiting tumor regressions ([1]; MaTu, 1.25 mg/kg Q4Dx3): 80%
inhibition of tumor growth ([1]; MaTu, 1.25 mg/kg Q4Dx3, end of dosing): 81%
animals responded to treatment ([1]; MaTu, 2.5 mg/kg and higher Q4Dx3): 100%
TGI ([1]; MaTu, 3 mg/kg i.v. Q4Dx3, end of dosing): 72%
tumors showing signs of re-growth ([1]; MaTu, 3 mg/kg): 3 tumors
animals remained tumor-free ([1]; MaTu, 3 mg/kg): 70%
TGI ([1]; MaTu, 10 mg/kg i.v. Q4Dx3, end of dosing): 78%
tumors showing signs of re-growth ([1]; MaTu, 10 mg/kg): 1 tumors
animals remained tumor-free ([1]; MaTu, 10 mg/kg): 90%
tolerability ([1]; MaTu, 1, 3 and 10 mg/kg i.v. Q4Dx3): well-tolerated at all doses examined
inhibition of tumor growth ([1]; MaTu, 2.5, 5, 10, 30 and 60 mg/kg Q4Dx3): ~90%
animals responded ([1]; MaTu, 3 and 10 mg/kg Q4Dx3): 100%
minimum efficacious dose (MED) ([1]; MaTu, i.v. Q4Dx3): 0.625 mg/kg
In vivo activity: MED ([1]; Table 4 profile): 1 mg/kg
In vivo activity: MTD ([1]; Table 4 profile): 60 mg/kg
tolerability ([1]; all other treatment groups (0.625 to 30 mg/kg) Q4Dx3): well tolerated
binding to CA5 [2]: Binding to mitochondria-associated CA5 was observed
cell binding by FACS [3]: not MN-negative DLD cells
anti-tumor effect [4]: failed to produce any significant anti-tumor effect
anti-tumor effects ([5]; PC3-mm2 human prostate xenograft model): anti-tumor effects were seen
animals showing responses ([5]; 3 mg/kg): 20%
animals showing responses ([5]; 10 and 30 mg/kg i.v. Q4Dx3): 100%
tolerability ([5]; PC3 mm2 (1, 3, 10, 30 mg/kg) and Colo-205 (1.25, 2.5, 5, 10 mg/kg) studies, i.v. Q4Dx3): well tolerated at all doses evaluated
